This test addresses T1, PrapGr28 (Pieris rapae, UniProt Z9RYY0XAY3).
T1 construct: also UAS-PrapGr28 in Drosophila Gr5a sweet neurons; oligomer unknown
T1 sequence (Z9RYY0XAY3 1-399): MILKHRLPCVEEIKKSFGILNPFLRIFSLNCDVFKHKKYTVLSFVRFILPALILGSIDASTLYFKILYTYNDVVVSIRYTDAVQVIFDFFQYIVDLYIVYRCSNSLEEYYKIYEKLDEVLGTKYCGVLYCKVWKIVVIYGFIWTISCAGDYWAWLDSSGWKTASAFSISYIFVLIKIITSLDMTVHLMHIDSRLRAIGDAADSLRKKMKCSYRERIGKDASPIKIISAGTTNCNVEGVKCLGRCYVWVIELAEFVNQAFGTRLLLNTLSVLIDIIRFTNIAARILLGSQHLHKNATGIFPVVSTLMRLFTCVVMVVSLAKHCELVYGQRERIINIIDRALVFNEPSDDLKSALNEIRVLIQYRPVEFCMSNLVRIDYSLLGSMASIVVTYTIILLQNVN
In words: two-electrode voltage clamp, inward current in Xenopus oocytes. Particulars: agonist; PrapGr28 expressed alone; holding potential -80 mV; 0.1-50 mM dose range; also tip recording of Drosophila L-type sensilla expressing PrapGr28. Type of test: cell-based. From the text: two-electrode voltage clamp, inward current in Xenopus oocytes on […]28 | the oocytes expressing […]28 selectively responded to sinigrin

Take `C=CC/C(=N/OS(=O)(=O)O)S[C@@H]1O[C@H](CO)[C@@H](O)[C@H](O)[C@H]1O` [sinigrin]: the “inward current response at 1 mM” value is “the oocytes expressing PrapGr28 selectively responded to sinigrin”.

The record behind these values is PMC8282186, “Identification of a gustatory receptor tuned to sinigrin in the cabbage butterfly Pieris rapae” (PLoS Genetics, 2021).
